{
  "source": "patent US20220259243A1",
  "about": "“IRON(III) AND GALLIUM(III) METAL ORGANIC POLYHEDRA, METHODS OF MAKING SAME, AND USES THEREOF” (The Research Foundation for The State University of New York, priority 2019, published 2022)",
  "origin": "cited, not measured here",
  "settings": "37° C., 4.7 Tesla, neutral pH",
  "data": [
    {"compound": "CNC[C@H](O)[C@@H](O)[C@H](O)[C@H](O)CO.CNC[C@H](O)[C@@H](O)[C@H](O)[C@H](O)CO.O=C([O-])CN(CCN(CC(=O)[O-])CC(=O)O)CCN(CC(=O)[O-])CC(=O)O.[Gd+3]", "note": "[Magnevist]", "values": [
      {"measurement": "r1 relaxivity", "value": 3, "unit": "mM⁻¹ s⁻¹"}
    ]}
  ]
}
